Experiment: Solubility test in propylene glycol monomethyl ether (PGME)
Conditions: 5% by mass in PGME, 5° C., 30 days
Experimental: A compound was dissolved at 5% by mass in propylene glycol monomethyl ether (PGME) at 23° C. Then, the solution was left to stand still at 5° C. for 30 days.
Evaluation A: No precipitate was visually confirmed.
Evaluation C: Precipitates were visually confirmed.

CC(c1ccc(-c2ccccc2)cc1)(c1c(O)ccc2ccccc12)c1c(O)ccc2ccccc12 [BiN-1]
solubility (summary in words of Table 7): good

CC(c1ccc(-c2ccccc2)cc1)(c1c(O)ccc2cc(O)ccc12)c1c(O)ccc2cc(O)ccc12 [BiN-2]
solubility (summary in words of Table 7): good

CC(c1ccc(-c2ccccc2)cc1)(c1c(O)ccc2ccc(O)cc12)c1c(O)ccc2ccc(O)cc12 [BiN-3]
solubility (summary in words of Table 7): good

CC(c1ccc(C2CCCCC2)cc1)(c1c(O)ccc2cc(O)ccc12)c1c(O)ccc2cc(O)ccc12 [BiN-4]
solubility (summary in words of Table 7): good

CC(c1ccc(-c2ccccc2)cc1)(c1ccc(O)c(-c2ccccc2)c1)c1ccc(O)c(-c2ccccc2)c1 [BiP-1]
solubility (summary in words of Table 7): good

CC(c1ccc(-c2ccccc2)cc1)(c1cc(-c2ccc(O)cc2)ccc1O)c1cc(-c2ccc(O)cc2)ccc1O [BiP-2]
solubility (summary in words of Table 7): good

CC(c1ccc(-c2ccccc2)cc1)(c1ccc(O)c(-c2ccccc2O)c1)c1ccc(O)c(-c2ccccc2O)c1 [BiP-3]
solubility (summary in words of Table 7): good

CC(c1ccc(C2CCCCC2)cc1)(c1ccc(O)c(-c2ccccc2O)c1)c1ccc(O)c(-c2ccccc2O)c1 [BiP-4]
solubility (summary in words of Table 7): good

CC(c1ccc(O)cc1)(c1ccc(O)cc1)c1ccc(C2CCCCC2)cc1 [P-2]
solubility (summary in words of Table 7): good

CC1(c2ccc(-c3ccccc3)cc2)c2ccc(O)cc2Oc2cc(O)ccc21 [P-3]
solubility (summary in words of Table 7): good

CC1(c2ccc(C3CCCCC3)cc2)c2ccc(O)cc2Oc2cc(O)ccc21 [P-4]
solubility (summary in words of Table 7): good

CC1(c2ccc(-c3ccccc3)cc2)c2c(ccc3cc(O)ccc23)Oc2ccc3cc(O)ccc3c21 [XBiN-1]
solubility (summary in words of Table 7): good

CC1(c2ccc(-c3ccccc3)cc2)c2c(ccc3ccc(O)cc23)Oc2ccc3ccc(O)cc3c21 [XBiN-2]
solubility (summary in words of Table 7): good

CC1(c2ccc(C3CCCCC3)cc2)c2c(ccc3cc(O)ccc23)Oc2ccc3cc(O)ccc3c21 [XBiN-3]
solubility (summary in words of Table 7): good
